According to the NIST ThermoML archive (doi:10.1021/je300568h):
Numbers after ± are expanded uncertainties.

Details: Liquid, Ebulliometric method (Recirculating still)

Row | vapor or sublimation pressure (420.2 K) [kPa] | vapor or sublimation pressure (436.7 K) [kPa] | vapor or sublimation pressure (448.2 K) [kPa] | vapor or sublimation pressure (457.9 K) [kPa] | vapor or sublimation pressure (330.9 K) [kPa] | vapor or sublimation pressure (345 K) [kPa] | vapor or sublimation pressure (355.1 K) [kPa] | vapor or sublimation pressure (363.2 K) [kPa] | vapor or sublimation pressure (366.7 K) [kPa] | SMILES
1 | 29.84 ± 0.74 | 49.84 ± 0.89 | 69.83 ± 1.2 | 89.83 ± 1.3 |  |  |  |  |  | CCCCCCCCN(C)C [N,N-dimethyl-1-octanamine]
2 |  |  |  |  | 29.84 ± 0.86 | 49.84 ± 0.99 | 69.83 ± 1.3 | 89.83 ± 1.6 | 99.83 ± 1.7 | CCCCN(C)C [N,N-dimethylbutanamine]
